Experimental data from patent publication US20060252807A1, “Novel ortho-terphenyl inhibitors of p38 kinase and methods of treating inflammatory disorders” (Kalypsys, Inc., priority 2005, published 2006).
pIC50: −log10 of the molar value.

Target: T1, active p38 alpha enzyme (Upstate Biotechnology) (Homo sapiens, UniProt Q16539)
T1 construct: purchased Upstate Biotechnology
Assay: p38α biochemical assay (ATP turnover, luminescent detection, Cambrex PKlight)
Conditions: p38α biochemical assay, Table 1 Biological Activity
How it was run: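 Active human p38α was incubated with full-length MapkapK2 protein as substrate and 1.4 uM ATP (final) for 2 hours at 30C. Buffer: 200 mM Tris, 100 mM MgCl2, 1.5 mM EGTA, 4 mM CaCl2, 20 mM MOPS, 1 mM EDTA, 1% glycerol, 0.1% β-mercaptoethanol, 1 mg/ml BSA. Total ATP turnover read by luminescence.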

T1 sequence (Q16539 whole entry): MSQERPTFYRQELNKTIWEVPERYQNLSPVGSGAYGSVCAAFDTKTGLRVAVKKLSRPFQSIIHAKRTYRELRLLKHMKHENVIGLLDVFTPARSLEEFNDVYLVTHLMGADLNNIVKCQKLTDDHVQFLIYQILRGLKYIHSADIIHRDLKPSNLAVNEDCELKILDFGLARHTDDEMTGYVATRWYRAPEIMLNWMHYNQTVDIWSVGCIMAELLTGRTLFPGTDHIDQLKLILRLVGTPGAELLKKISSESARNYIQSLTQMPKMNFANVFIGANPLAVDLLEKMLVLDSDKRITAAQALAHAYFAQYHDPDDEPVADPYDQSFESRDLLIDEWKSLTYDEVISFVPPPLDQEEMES

pIC50	Compound
≥ 6.00	COc1ccccc1/C=C/C(=O)N1CCN(Cc2nc(-c3ccc(F)cc3)c(-c3nc(C(=O)NC(C)C)cs3)o2)CC1 [Example 442]
< 6.00	CC(C)NC(=O)c1csc(-c2oc(CN3CCN(C(=O)c4csc5ccccc45)CC3)nc2-c2ccc(F)cc2)n1 [Example 443]
< 6.00	CC(C)NC(=O)c1csc(-c2oc(CN3CCN(C(=O)c4cc5ccccc5s4)CC3)nc2-c2ccc(F)cc2)n1 [Example 444]
< 6.00	CCCCc1ccc(C(=O)N2CCN(Cc3nc(-c4ccc(F)cc4)c(-c4nc(C(=O)NC(C)C)cs4)o3)CC2)cc1 [Example 445]
< 6.00	CC(C)NC(=O)c1csc(-c2oc(CN3CCN(C(=O)c4ccc(C(C)(C)C)cc4)CC3)nc2-c2ccc(F)cc2)n1 [Example 446]
≥ 6.00	CC(C)NC(=O)c1csc(-c2oc(CN3CCN(C(=O)c4ccc(N(C)C=O)cc4)CC3)nc2-c2ccc(F)cc2)n1 [Example 447]
≥ 6.00	CC(=O)Nc1cccc(C(=O)N2CCN(Cc3nc(-c4ccc(F)cc4)c(-c4nc(C(=O)NC(C)C)cs4)o3)CC2)c1 [Example 448]
< 6.00	CC(C)NC(=O)c1csc(-c2oc(CN3CCN(C(=O)COc4ccccc4C=O)CC3)nc2-c2ccc(F)cc2)n1 [Example 449]
< 6.00	CC(=O)Oc1ccc(C(=O)N2CCN(Cc3nc(-c4ccc(F)cc4)c(-c4nc(C(=O)NC(C)C)cs4)o3)CC2)cc1 [Example 450]
< 6.00	COC(=O)c1ccc(C(=O)N2CCN(Cc3nc(-c4ccc(F)cc4)c(-c4nc(C(=O)NC(C)C)cs4)o3)CC2)cc1 [Example 451]
≥ 6.00	CC(=O)Oc1cccc(C(=O)N2CCN(Cc3nc(-c4ccc(F)cc4)c(-c4nc(C(=O)NC(C)C)cs4)o3)CC2)c1 [Example 452]
< 6.00	CC(=O)Oc1ccccc1C(=O)N1CCN(Cc2nc(-c3ccc(F)cc3)c(-c3nc(C(=O)NC(C)C)cs3)o2)CC1 [Example 453]
< 6.00	CC(C)NC(=O)c1csc(-c2oc(CN3CCN(C(=O)Cc4ccc5c(c4)OCO5)CC3)nc2-c2ccc(F)cc2)n1 [Example 454]
< 6.00	CCCOc1ccc(C(=O)N2CCN(Cc3nc(-c4ccc(F)cc4)c(-c4nc(C(=O)NC(C)C)cs4)o3)CC2)cc1 [Example 455]
≥ 6.00	CC(C)NC(=O)c1csc(-c2oc(CN3CCN(C(=O)c4ccc(OC(C)C)cc4)CC3)nc2-c2ccc(F)cc2)n1 [Example 456]
≥ 6.00	Cc1cccc([N+](=O)[O-])c1C(=O)N1CCN(Cc2nc(-c3ccc(F)cc3)c(-c3nc(C(=O)NC(C)C)cs3)o2)CC1 [Example 457]
< 6.00	Cc1cccc(C(=O)N2CCN(Cc3nc(-c4ccc(F)cc4)c(-c4nc(C(=O)NC(C)C)cs4)o3)CC2)c1[N+](=O)[O-] [Example 458]
< 6.00	Cc1ccc([N+](=O)[O-])c(C(=O)N2CCN(Cc3nc(-c4ccc(F)cc4)c(-c4nc(C(=O)NC(C)C)cs4)o3)CC2)c1 [Example 459]
< 6.00	Cc1c(C(=O)N2CCN(Cc3nc(-c4ccc(F)cc4)c(-c4nc(C(=O)NC(C)C)cs4)o3)CC2)cccc1[N+](=O)[O-] [Example 460]
< 6.00	COc1ccc(OC)c(C(=O)N2CCN(Cc3nc(-c4ccc(F)cc4)c(-c4nc(C(=O)NC(C)C)cs4)o3)CC2)c1 [Example 461]
≥ 6.00	COc1ccc(C(=O)N2CCN(Cc3nc(-c4ccc(F)cc4)c(-c4nc(C(=O)NC(C)C)cs4)o3)CC2)c(OC)c1 [Example 462]

pIC50	Compound
≥ 6.00	COc1cccc(OC)c1C(=O)N1CCN(Cc2nc(-c3ccc(F)cc3)c(-c3nc(C(=O)NC(C)C)cs3)o2)CC1 [Example 463]
< 6.00	COc1cc(OC)cc(C(=O)N2CCN(Cc3nc(-c4ccc(F)cc4)c(-c4nc(C(=O)NC(C)C)cs4)o3)CC2)c1 [Example 464]
< 6.00	COc1cccc(C(=O)N2CCN(Cc3nc(-c4ccc(F)cc4)c(-c4nc(C(=O)NC(C)C)cs4)o3)CC2)c1OC [Example 465]
< 6.00	Cc1ccc(SCC(=O)N2CCN(Cc3nc(-c4ccc(F)cc4)c(-c4nc(C(=O)NC(C)C)cs4)o3)CC2)cc1 [Example 466]
< 6.00	CC(C)NC(=O)c1csc(-c2oc(CN3CCN(C(=O)/C=C/c4ccc(Cl)cc4)CC3)nc2-c2ccc(F)cc2)n1 [Example 467]
< 6.00	CC(C)NC(=O)c1csc(-c2oc(CN3CCN(C(=O)/C=C/c4ccccc4Cl)CC3)nc2-c2ccc(F)cc2)n1 [Example 468]
< 6.00	CC(C)NC(=O)c1csc(-c2oc(CN3CCN(C(=O)c4ccc([N+](=O)[O-])c(O)c4)CC3)nc2-c2ccc(F)cc2)n1 [Example 469]
< 6.00	CC(C)NC(=O)c1csc(-c2oc(CN3CCN(C(=O)c4cc(O)ccc4[N+](=O)[O-])CC3)nc2-c2ccc(F)cc2)n1 [Example 470]
≥ 6.00	CC(C)NC(=O)c1csc(-c2oc(CN3CCN(C(=O)c4cc([N+](=O)[O-])ccc4O)CC3)nc2-c2ccc(F)cc2)n1 [Example 471]
< 6.00	CC(C)NC(=O)c1csc(-c2oc(CN3CCN(C(=O)c4cc([N+](=O)[O-])ccc4F)CC3)nc2-c2ccc(F)cc2)n1 [Example 472]
< 6.00	CC(C)NC(=O)c1csc(-c2oc(CN3CCN(C(=O)c4cc(F)ccc4[N+](=O)[O-])CC3)nc2-c2ccc(F)cc2)n1 [Example 473]
< 6.00	CC(C)NC(=O)c1csc(-c2oc(CN3CCN(C(=O)c4ccc(F)c([N+](=O)[O-])c4)CC3)nc2-c2ccc(F)cc2)n1 [Example 474]
< 6.00	COc1ccc(Cl)cc1C(=O)N1CCN(Cc2nc(-c3ccc(F)cc3)c(-c3nc(C(=O)NC(C)C)cs3)o2)CC1 [Example 475]
< 6.00	COc1cc(Cl)ccc1C(=O)N1CCN(Cc2nc(-c3ccc(F)cc3)c(-c3nc(C(=O)NC(C)C)cs3)o2)CC1 [Example 476]
< 6.00	CC(C)NC(=O)c1csc(-c2oc(CN3CCN(C(=O)Cc4ccc(O)c(Cl)c4)CC3)nc2-c2ccc(F)cc2)n1 [Example 477]
< 6.00	COc1cc(C(=O)N2CCN(Cc3nc(-c4ccc(F)cc4)c(-c4nc(C(=O)NC(C)C)cs4)o3)CC2)cc(Cl)n1 [Example 478]
< 6.00	CC(C)NC(=O)c1csc(-c2oc(CN3CCN(C(=O)c4ccc5cc(O)ccc5c4)CC3)nc2-c2ccc(F)cc2)n1 [Example 479]
< 6.00	CC(C)NC(=O)c1csc(-c2oc(CN3CCN(C(=O)c4c(O)ccc5ccccc45)CC3)nc2-c2ccc(F)cc2)n1 [Example 480]
< 6.00	CC(C)NC(=O)c1csc(-c2oc(CN3CCN(C(=O)c4cc5ccccc5cc4O)CC3)nc2-c2ccc(F)cc2)n1 [Example 481]
< 6.00	CC(C)NC(=O)c1csc(-c2oc(CN3CCN(C(=O)c4ccc5ccccc5c4O)CC3)nc2-c2ccc(F)cc2)n1 [Example 482]
≥ 6.00	CC(C)NC(=O)c1csc(-c2oc(CN3CCN(C(=O)c4ccc5cccc(O)c5n4)CC3)nc2-c2ccc(F)cc2)n1 [Example 483]

pIC50	Compound
< 6.00	CC(C)NC(=O)c1csc(-c2oc(CN3CCN(C(=O)C(C)NC(=O)OC(C)(C)C)CC3)nc2-c2ccc(F)cc2)n1 (centres unmarked) [Example 484]
< 6.00	CC(C)NC(=O)c1csc(-c2oc(CN3CCN(C(=O)C(C)NC(=O)OC(C)(C)C)CC3)nc2-c2ccc(F)cc2)n1 (centres unmarked) [Example 485]
< 6.00	CC(C)NC(=O)c1csc(-c2oc(CN3CCN(C(=O)c4ccccc4C(F)(F)F)CC3)nc2-c2ccc(F)cc2)n1 [Example 486]
< 6.00	CC(C)NC(=O)c1csc(-c2oc(CN3CCN(C(=O)CCc4nc5ccccc5[nH]4)CC3)nc2-c2ccc(F)cc2)n1 [Example 487]
< 6.00	CC(C)NC(=O)c1csc(-c2oc(CN3CCN(C(=O)c4cccc(Cl)c4Cl)CC3)nc2-c2ccc(F)cc2)n1 [Example 488]
< 6.00	CC(C)NC(=O)c1csc(-c2oc(CN3CCN(C(=O)c4ccc(Cl)cc4Cl)CC3)nc2-c2ccc(F)cc2)n1 [Example 489]
< 6.00	CC(C)NC(=O)c1csc(-c2oc(CN3CCN(C(=O)c4cc(Cl)ccc4Cl)CC3)nc2-c2ccc(F)cc2)n1 [Example 490]
< 6.00	CC(C)NC(=O)c1csc(-c2oc(CN3CCN(C(=O)c4cc(F)c(F)c(O)c4F)CC3)nc2-c2ccc(F)cc2)n1 [Example 491]
< 6.00	CC(C)NC(=O)c1csc(-c2oc(CN3CCN(C(=O)/C=C/c4ccc5c(c4)OCO5)CC3)nc2-c2ccc(F)cc2)n1 [Example 492]
< 6.00	Cc1ccc(C(=O)CCC(=O)N2CCN(Cc3nc(-c4ccc(F)cc4)c(-c4nc(C(=O)NC(C)C)cs4)o3)CC2)cc1 [Example 493]
< 6.00	CCCCCc1ccc(C(=O)N2CCN(Cc3nc(-c4ccc(F)cc4)c(-c4nc(C(=O)NC(C)C)cs4)o3)CC2)cc1 [Example 494]
< 6.00	CC(C)NC(=O)c1csc(-c2oc(CN3CCN(C(=O)c4cc(F)c(F)cc4Cl)CC3)nc2-c2ccc(F)cc2)n1 [Example 495]
< 6.00	CC(C)NC(=O)c1csc(-c2oc(CN3CCN(C(=O)c4cc(F)c(Cl)cc4F)CC3)nc2-c2ccc(F)cc2)n1 [Example 496]
≥ 6.00	CCN(CC)c1ccc(C(=O)N2CCN(Cc3nc(-c4ccc(F)cc4)c(-c4nc(C(=O)NC(C)C)cs4)o3)CC2)cc1 [Example 497]
≥ 6.00	COc1cc(/C=C/C(=O)N2CCN(Cc3nc(-c4ccc(F)cc4)c(-c4nc(C(=O)NC(C)C)cs4)o3)CC2)ccc1O [Example 498]
≥ 6.00	COc1ccc(/C=C/C(=O)N2CCN(Cc3nc(-c4ccc(F)cc4)c(-c4nc(C(=O)NC(C)C)cs4)o3)CC2)cc1O [Example 499]
≥ 6.00	CCCCOc1ccc(C(=O)N2CCN(Cc3nc(-c4ccc(F)cc4)c(-c4nc(C(=O)NC(C)C)cs4)o3)CC2)cc1 [Example 500]
< 6.00	CC(C)NC(=O)c1csc(-c2oc(CN3CCN(C(=O)c4cc5cc(Cl)ccc5o4)CC3)nc2-c2ccc(F)cc2)n1 [Example 501]
< 6.00	COc1ccc([N+](=O)[O-])c(C(=O)N2CCN(Cc3nc(-c4ccc(F)cc4)c(-c4nc(C(=O)NC(C)C)cs4)o3)CC2)c1 [Example 502]
≥ 6.00	COc1cc(C(=O)N2CCN(Cc3nc(-c4ccc(F)cc4)c(-c4nc(C(=O)NC(C)C)cs4)o3)CC2)cc(OC)c1O [Example 503]
